# According to ChEMBL document CHEMBL3044672, “N9- and N7-(Chloromethyl Phenymethyl)Chloropurine Derivatives from , '-Dichloroxylenes: Synthesis and Anticancer Activity” (2005):
# Legend:
# Format in all cases: functional
# UACC-62 = assay: Cytotoxicity against Homo sapiens (human) UACC62 cells after 48 hr by sulforhodamine B assay; details: UACC-62, 48 h
# BT-549 = assay: Cytotoxicity against Homo sapiens (human) BT549 cells after 48 hr by sulforhodamine B assay; details: BT-549, 48 h
# K562 = assay: Cytotoxicity against Homo sapiens (human) K562 cells after 48 hr by sulforhodamine B assay; details: K562, 48 h
# [1] = Cytotoxicity against Homo sapiens (human) NCI-ADR-RES cells after 48 hr by sulforhodamine B assay
# SK-MEL-28 = assay: Cytotoxicity against Homo sapiens (human) SK-MEL-28 cells after 48 hr by sulforhodamine B assay; details: SK-MEL-28, 48 h
# CCRF-CEM = assay: Cytotoxicity against Homo sapiens (human) CCRF-CEM cells after 48 hr by sulforhodamine B assay
# UACC-257 = assay: Cytotoxicity against Homo sapiens (human) UACC257 cells after 48 hr by sulforhodamine B assay; details: UACC-257, 48 h
# M14 = assay: Cytotoxicity against Homo sapiens (human) M14 cells after 48 hr by sulforhodamine B assay; details: M14, 48 h
# MCF7 = assay: Cytotoxicity against Homo sapiens (human) MCF7 cells assessed as cell growth at 10^-4 M after 48 hr by Alamar blue assay; details: MCF7, 48 h, read-out: Activity
# SNB-19 = assay: Cytotoxicity against Homo sapiens (human) SNB19 cells after 48 hr by sulforhodamine B assay; details: SNB-19, 48 h
# ACHN = assay: Cytotoxicity against Homo sapiens (human) ACHN cells after 48 hr by sulforhodamine B assay
# NCI-H460 = assay: Cytotoxicity against Homo sapiens (human) NCI-H460 cells assessed as cell growth at 10^-4 M after 48 hr by Alamar blue assay; details: NCI-H460, 48 h, read-out: Activity
# U-251 = assay: Cytotoxicity against Homo sapiens (human) U251 cells after 48 hr by sulforhodamine B assay; details: U-251, 48 h
# A498 = assay: Cytotoxicity against Homo sapiens (human) A498 cells after 48 hr by sulforhodamine B assay; details: A498, 48 h
# NCI-H23 = assay: Cytotoxicity against Homo sapiens (human) NCI-H23 cells after 48 hr by sulforhodamine B assay; details: NCI-H23, 48 h
# NCI-H522 = assay: Cytotoxicity against Homo sapiens (human) NCI-H522 cells after 48 hr by sulforhodamine B assay; details: NCI-H522, 48 h
# OVCAR-8 = assay: Cytotoxicity against Homo sapiens (human) OVCAR8 cells after 48 hr by sulforhodamine B assay; details: OVCAR-8, 48 h
# 786-0 = assay: Cytotoxicity against Homo sapiens (human) 786-0 cells after 48 hr by sulforhodamine B assay; details: 786-0, 48 h
# UO-31 = assay: Cytotoxicity against Homo sapiens (human) UO31 cells after 48 hr by sulforhodamine B assay; details: UO-31, 48 h
# CAKI-1 = assay: Cytotoxicity against Homo sapiens (human) Caki1 cells after 48 hr by sulforhodamine B assay; details: CAKI-1, 48 h
# SF-268 = assay: Cytotoxicity against Homo sapiens (human) SF268 cells after 48 hr by sulforhodamine B assay; details: SF-268, 48 h
# A549 = assay: Cytotoxicity against Homo sapiens (human) A549 cells after 48 hr by sulforhodamine B assay; details: A549, 48 h
# SN12C = assay: Cytotoxicity against Homo sapiens (human) SN12C cells after 48 hr by sulforhodamine B assay
# HCT-15 = assay: Cytotoxicity against Homo sapiens (human) HCT15 cells after 48 hr by sulforhodamine B assay; details: HCT-15, 48 h
# SF-539 = assay: Cytotoxicity against Homo sapiens (human) SF539 cells after 48 hr by sulforhodamine B assay; details: SF-539, 48 h
# LOX IMVI = assay: Cytotoxicity against Homo sapiens (human) LOXIMVI cells after 48 hr by sulforhodamine B assay
# NCI-H226 = assay: Cytotoxicity against Homo sapiens (human) NCI-H226 cells after 48 hr by sulforhodamine B assay; details: NCI-H226, 48 h
# HOP-92 = assay: Cytotoxicity against Homo sapiens (human) HOP92 cells after 48 hr by sulforhodamine B assay; details: HOP-92, 48 h
# [2] = read-out: LC50 (the source's name)
compound,measurement,setting,value
Nc1nc(Cl)c2ncn(Cc3ccccc3CCl)c2n1,LC50 (concentration causing 50% net cell kill),UACC-62,8.51 µM
same,TGI,UACC-62,4.37 µM
same,LC50 (50% lethal concentration),BT-549,57.5 µM
same,TGI,BT-549,22.9 µM
same,TGI,K562,> 100 µM
same,CC50,K562; [2],> 100 µM
same,LC50 (concentration killing 50% of cells),[1],> 100 µM
same,TGI,[1],34.7 µM
same,LC50 (concentration killing 50% of cells),SK-MEL-28,74.1 µM
same,TGI,SK-MEL-28,20.9 µM
same,TGI,CCRF-CEM,> 100 µM
same,CC50,CCRF-CEM; [2],> 100 µM
same,LC50 (concentration killing 50% of cells),UACC-257,> 100 µM
same,TGI,UACC-257,38 µM
same,LC50,M14,> 100 µM
same,TGI,M14,39.8 µM
same,growth at 100 µM,MCF7,0%
same,LC50,SNB-19,> 100 µM
same,TGI,SNB-19,27.5 µM
same,TGI,ACHN,21.9 µM
same,CC50,ACHN; [2],75.9 µM
same,growth at 100 µM,NCI-H460,0%
same,LC50 (concentration killing 50% of cells),U-251,72.4 µM
same,TGI,U-251,13.5 µM
same,"LC50 (lethal concentration, 50% cell kill)",A498,95.5 µM
same,TGI,A498,44.7 µM
same,TGI,NCI-H23,8.91 µM
same,CC50,NCI-H23; [2],78.9 µM
same,TGI,NCI-H522,9.33 µM
same,CC50,NCI-H522; [2],> 100 µM
same,LC50 (concentration killing 50% of cells),OVCAR-8,> 100 µM
same,TGI,OVCAR-8,19.5 µM
same,LC50,786-0,> 100 µM
same,TGI,786-0,52.5 µM
same,LC50 (concentration causing 50% net cell kill),UO-31,> 100 µM
same,TGI,UO-31,44.7 µM
same,TGI,CAKI-1,20.4 µM
same,CC50,CAKI-1; [2],50.1 µM
same,TGI,SF-268,14.5 µM
same,CC50,SF-268; [2],97.2 µM
same,TGI,A549,53.7 µM
same,CC50,A549; [2],> 100 µM
same,LC50 (50% lethal concentration),SN12C,19.5 µM
same,TGI,SN12C,5.62 µM
same,TGI,HCT-15,7.41 µM
same,CC50,HCT-15; [2],> 100 µM
same,LC50 (concentration killing 50% of cells),SF-539,81.3 µM
same,TGI,SF-539,38 µM
same,LC50,LOX IMVI,> 100 µM
same,TGI,LOX IMVI,21.9 µM
same,TGI,NCI-H226,10 µM
same,CC50,NCI-H226; [2],53.7 µM
same,TGI,HOP-92,30.9 µM
same,CC50,HOP-92; [2],> 100 µM
